Assay results from ChEMBL document CHEMBL1201862, “PubChem BioAssay data set” (2004).
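Values below derive from 48-hour exposures of cells grown in 96-well plates, with endpoints linearly interpolated between the two concentrations bracketing the appropriate inhibition level. GI50 = concentration required for 50% inhibition of growth.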 Active and inactive are the calls of the source. No stated cut-off is given here; in the data, active = GI50 up to about 1.1 µM and inactive = higher.

Assays:
Experiment in all cases: inhibition of tumour cell growth, NCI panel, 48 h
[1] = system: HOP-62
[2] = system: DLD-1
[3] = system: XF498
[4] = system: KM12
[5] = system: RXF 631
[6] = system: K562
[7] = system: KM-20L2
[8] = system: M14
[9] = system: OVCAR-3
[10] = system: LOX IMVI
[11] = system: OVCAR-8
[12] = system: OVCAR-5
[13] = system: SK-OV-3
[14] = system: A498
[15] = system: SW-620
[16] = system: LXFL 529
[17] = system: DMS-273
[18] = system: RPMI-8226
[19] = system: SNB-78
[20] = system: SK-MEL-5
[21] = system: 786-0
[22] = system: SK-MEL-28
[23] = system: SF-295
[24] = system: SNB-19
[25] = system: SN12C
[26] = system: CAKI-1
[27] = system: NCI-H460
[28] = system: ACHN
[29] = system: SNB-75
[30] = system: HOP-18
[31] = system: IGROV-1
[32] = system: COLO 205
[33] = system: UACC-62
[34] = system: NCI-H23
[35] = system: CCRF-CEM
[36] = system: EKVX
[37] = system: SF-268
[38] = system: Malme-3M
[39] = system: HT-29
[40] = system: UACC-257
[41] = system: UO-31
[42] = system: HCT-15
[43] = system: TK-10
[44] = system: MOLT-4
[45] = system: SK-MEL-2
[46] = system: A549
[47] = system: HCC 2998
[48] = system: SF-539
[49] = system: RXF 393
[50] = system: OVCAR-4
[51] = system: DMS-114
[52] = system: M19-MEL
[53] = system: U-251
[54] = system: NCI-H522
[55] = system: HL-60
[56] = system: HOP-92
[57] = system: SR
[58] = system: NCI-H226
[59] = system: HCT-116

COc1cc(OC)c(C(=O)c2cccs2)cc1N
GI50 [1]: > 100 µM (inactive) | GI50 [2]: > 100 µM (inactive) | GI50 [3]: > 100 µM (inactive) | GI50 [4]: > 100 µM (inactive) | GI50 [5]: > 100 µM (inactive) | GI50 [6]: > 100 µM (inactive) | GI50 [7]: > 100 µM (inactive) | GI50 [8]: > 100 µM (inactive) | GI50 [9]: > 100 µM (inactive) | GI50 [10]: > 100 µM (inactive) | GI50 [11]: > 100 µM (inactive) | GI50 [12]: > 100 µM (inactive) | GI50 [13]: > 100 µM (inactive) | GI50 [14]: > 100 µM (inactive) | GI50 [15]: > 100 µM (inactive) | GI50 [16]: > 100 µM (inactive) | GI50 [17]: > 100 µM (inactive) | GI50 [18]: > 100 µM (inactive) | GI50 [19]: > 100 µM (inactive) | GI50 [20]: > 100 µM (inactive) | GI50 [21]: > 100 µM (inactive) | GI50 [22]: > 100 µM (inactive) | GI50 [23]: > 100 µM (inactive) | GI50 [24]: > 100 µM (inactive) | GI50 [25]: > 100 µM (inactive) | GI50 [26]: > 100 µM (inactive) | GI50 [27]: > 100 µM (inactive) | GI50 [28]: > 100 µM (inactive) | GI50 [29]: > 100 µM (inactive) | GI50 [30]: 23.7 µM (inactive) | GI50 [31]: > 100 µM (inactive) | GI50 [32]: > 100 µM (inactive) | GI50 [33]: > 100 µM (inactive) | GI50 [34]: > 100 µM (inactive) | GI50 [35]: > 100 µM (inactive) | GI50 [36]: > 100 µM (inactive) | GI50 [37]: > 100 µM (inactive) | GI50 [38]: > 100 µM (inactive) | GI50 [39]: > 100 µM (inactive) | GI50 [40]: > 100 µM (inactive) | GI50 [41]: 96.6 µM (inactive) | GI50 [42]: > 100 µM | GI50 [43]: > 100 µM (inactive) | GI50 [44]: > 100 µM (inactive) | GI50 [45]: > 100 µM (inactive) | GI50 [46]: > 100 µM (inactive) | GI50 [47]: > 100 µM (inactive) | GI50 [48]: > 100 µM (inactive) | GI50 [49]: > 100 µM (inactive) | GI50 [50]: > 100 µM (inactive) | GI50 [51]: > 100 µM (inactive) | GI50 [52]: > 100 µM (inactive) | GI50 [53]: > 100 µM (inactive)

COc1ccc(C(=O)Nc2ccc(S(=O)(=O)NCC(=O)O)cc2)cc1
GI50 [2]: > 100 µM (inactive) | GI50 [3]: > 100 µM (inactive) | GI50 [4]: > 100 µM (inactive) | GI50 [5]: > 100 µM (inactive) | GI50 [6]: > 100 µM (inactive) | GI50 [7]: > 100 µM (inactive) | GI50 [8]: > 100 µM (inactive) | GI50 [9]: > 100 µM (inactive) | GI50 [10]: > 100 µM (inactive) | GI50 [11]: > 100 µM (inactive) | GI50 [12]: > 100 µM (inactive) | GI50 [13]: > 100 µM (inactive) | GI50 [14]: > 100 µM (inactive) | GI50 [15]: > 100 µM (inactive) | GI50 [16]: > 100 µM (inactive) | GI50 [54]: > 100 µM (inactive) | GI50 [17]: > 100 µM (inactive) | GI50 [18]: > 100 µM (inactive) | GI50 [20]: > 100 µM (inactive) | GI50 [21]: > 100 µM (inactive) | GI50 [22]: > 100 µM (inactive) | GI50 [23]: > 100 µM (inactive) | GI50 [24]: > 100 µM (inactive) | GI50 [25]: > 100 µM (inactive) | GI50 [26]: > 100 µM (inactive) | GI50 [27]: > 100 µM (inactive) | GI50 [28]: > 100 µM (inactive) | GI50 [29]: > 100 µM (inactive) | GI50 [30]: > 100 µM (inactive) | GI50 [55]: > 100 µM (inactive) | GI50 [31]: > 100 µM (inactive) | GI50 [32]: > 100 µM (inactive) | GI50 [33]: > 100 µM (inactive) | GI50 [34]: > 100 µM (inactive) | GI50 [35]: > 100 µM (inactive) | GI50 [36]: > 100 µM (inactive) | GI50 [37]: > 100 µM (inactive) | GI50 [38]: > 100 µM (inactive) | GI50 [39]: > 100 µM (inactive) | GI50 [40]: > 100 µM (inactive) | GI50 [41]: > 100 µM (inactive) | GI50 [42]: > 100 µM | GI50 [43]: > 100 µM (inactive) | GI50 [44]: > 100 µM (inactive) | GI50 [56]: > 100 µM (inactive) | GI50 [45]: > 100 µM (inactive) | GI50 [46]: > 100 µM (inactive) | GI50 [47]: > 100 µM (inactive) | GI50 [48]: > 100 µM (inactive) | GI50 [49]: > 100 µM (inactive) | GI50 [50]: > 100 µM (inactive) | GI50 [52]: > 100 µM (inactive) | GI50 [53]: > 100 µM (inactive)

N#CC1(C=O)c2ccccc2C=CN1C(=O)c1ccccc1 (configuration not stated)
GI50 [57]: 18.5 µM (inactive) | GI50 [3]: 22 µM (inactive) | GI50 [4]: 19.2 µM (inactive) | GI50 [5]: 56.5 µM (inactive) | GI50 [6]: 29.6 µM (inactive) | GI50 [7]: 43.6 µM (inactive) | GI50 [8]: 26.8 µM (inactive) | GI50 [9]: 16.7 µM (inactive) | GI50 [11]: 41.8 µM (inactive) | GI50 [58]: 61.9 µM (inactive) | GI50 [14]: 26.4 µM (inactive) | GI50 [15]: 4.3 µM (inactive) | GI50 [16]: 33.3 µM (inactive) | GI50 [54]: 27.9 µM (inactive) | GI50 [17]: 49.2 µM (inactive) | GI50 [19]: 78.7 µM (inactive) | GI50 [20]: 11.4 µM (inactive) | GI50 [21]: 31.7 µM (inactive) | GI50 [22]: > 100 µM (inactive) | GI50 [24]: 58.3 µM (inactive) | GI50 [25]: 50 µM (inactive) | GI50 [26]: 20.5 µM (inactive) | GI50 [27]: 73.6 µM (inactive) | GI50 [28]: 27.4 µM (inactive) | GI50 [29]: 15.1 µM (inactive) | GI50 [30]: 41.4 µM (inactive) | GI50 [55]: 17.7 µM (inactive) | GI50 [31]: 26.9 µM (inactive) | GI50 [32]: 37.3 µM (inactive) | GI50 [33]: 52.5 µM (inactive) | GI50 [34]: 41.7 µM (inactive) | GI50 [35]: 17.6 µM (inactive) | GI50 [36]: 29.7 µM (inactive) | GI50 [37]: 70.3 µM (inactive) | GI50 [38]: 30.6 µM (inactive) | GI50 [39]: 38.2 µM (inactive) | GI50 [40]: 29.8 µM (inactive) | GI50 [41]: 33.3 µM (inactive) | GI50 [42]: 40.7 µM | GI50 [43]: 63.5 µM (inactive) | GI50 [44]: 18.7 µM (inactive) | GI50 [59]: 38.6 µM (inactive) | GI50 [56]: 23.4 µM (inactive) | GI50 [45]: 61.8 µM (inactive) | GI50 [46]: 76.2 µM (inactive) | GI50 [47]: 35.8 µM (inactive) | GI50 [49]: 20.5 µM (inactive) | GI50 [50]: 34.9 µM (inactive) | GI50 [51]: 19.8 µM (inactive) | GI50 [52]: 33.7 µM (inactive) | GI50 [53]: 29.6 µM (inactive)
